The subject of one experiment is normal C57BL/6J mice. Kind of experiment: Oral sucrose test, postprandial blood glucose. Type of experiment: in vivo. The conditions noted are these: for Blood glucose levels: 30 min after sucrose 4 g/kg, n = 8, in mmol/L (unit assumed); for Rate of blood glucose reduction: vs model group, 30 min after sucrose. The text has this:
Male C57BL/6J mice of SPF grade, aged 6–8 weeks and weighing 18–22 g, were obtained from the Experimental Animal Science Department of Peking University. The mice were housed in a controlled environment with a 12:12 light/dark cycle and a constant temperature. They were provided with standard pellet feed and given free access to drinking water. To ensure acclimatization, the mice were allowed to adjust to the diet and housing conditions for one week prior to the experiment. All animal experiments were performed in compliance with the relevant laws and institutional guidelines for the care and use of laboratory animals in China. The experiments were approved by the Laboratory Animal Management and Ethics Committee of Peking University (LA2021443). Additionally, the certification number for the laboratory animal personnel is 1120111300011.
The 16 flavonoids were subsequently evaluated for their potential antihyperglycemic effects by using the oral sucrose test, which is commonly used to evaluate intestinal α-glucosidase inhibition in vivo [62]. Normal C57BL/6J mice were randomly divided into model groups and the 16 flavonoid compound groups (n = 8 per group), respectively. The flavonoids at different concentrations were suspended in 0.5% sodium carboxymethyl cellulose (CMC-Na). […] Fifteen minutes after drug administration, the mice were given a sucrose solution (4 g/kg). Blood samples were collected from the tail vein at 30 min after sucrose loading, and blood glucose levels were measured using an Accu-Chek Performa glucometer (Roche Diagnostics, SN: 79508621393, Shanghai, China). The rate of blood glucose reduction was calculated using the following Formula (4):(4) The rate of blood glucose reduction%=the model blood glucose-the sample blood glucose/the model blood glucose×100%

Experiment [1] concerns the target T1, α-glucosidase (Saccharomyces cerevisiae, UniProt P53341).
T1 construct: purchased Shanghai Yuanye Biotechnology Co., Shanghai, China Lot No. M23HS178879 (catalogue number not given)
As to the kind of experiment: CD spectroscopy, secondary structure of α-glucosidase (BeStSel). The conditions noted are these: for β-turn: free enzyme 11.7; for β-sheet: free enzyme 28.8; for random coil: free enzyme 45.2; for α-helix: free enzyme 14.4. The procedure:
CD spectra in the far-UV region (190–250 nm) were scanned by using a CD spectrometer (JASCO-1.5 Tokyo, Japan). […] The slit width was set to 1 nm, and the baseline was calibrated with PBS (phosphate buffered saline). CD spectra were averaged over three scans under a constant nitrogen flow, with the buffer signal subtracted. The results were analyzed using the BeStSel database (https://bestsel.elte.hu/index.php, accessed on 16 May 2025).

For experiment [2], the target named is T2, Saccharomyces cerevisiae α-glucosidase (Saccharomyces cerevisiae, UniProt P53341).
T2 construct: purchased Shanghai Yuanye Biotechnology Co., Shanghai, China Lot No. M23HS178879 (catalogue number not given)
Kind of experiment: biochemical. As to conditions: IC50, α-glucosidase 0.2 U/mL, 5 mM pNPG, PBS pH 6.8, 37 °C. The procedure:
(§1) The α-glucosidase inhibitory effects of flavonoids were evaluated as in a previous report with slight modifications (including changes in the concentrations of the enzyme, substrate, and Na2CO3). Briefly, 50 μL of phosphate-buffered saline (PBS, 0.1 M, pH 6.8), the test compound, and α-glucosidase (0.2 U/mL) were preincubated in a 96-well plate at 37 °C for 10 min. The reaction was then initiated by adding 50 μL of 5 mM pNPG as the substrate. Subsequently, the 96-well plate was incubated for an additional 30 min at 37 °C, then 50 μL of 0.2 M Na2CO3 was added to terminate the reaction. Absorbance was measured at under 405 nm.

Experiment [3] has as its target T1, α-glucosidase. As to the kind of experiment: Inhibitory kinetic analysis (Lineweaver–Burk plot). The format is biochemical. The conditions noted are these: Lineweaver–Burk plots, pNPG 0.31–20 mM. How it is done: The type of inhibition was determined by using the kinetics curve and the Lineweaver–Burk plot. […] These compounds were incubated with α-glucosidase at 37 °C for 30 min. After incubation, various concentrations of pNPG (0.31–20 mM) were added, and absorbance was measured at 405 nm. The Lineweaver–Burk plot was obtained by plotting 1/[S] on the x-axis and 1/v on the y-axis, where [S] represents substrate concentration and v represents the reaction velocity.

In experiment [4] the target is T1, α-glucosidase. Kind of experiment: Mixture effects of flavonoid combinations on α-glucosidase. The format is biochemical. How it is done: as §1
The inhibitory activity of the composition was evaluated using the same method described in Section 3.2. […] The combination index (CI, Formula (3)) was subsequently used to assess the interactions between the compounds [60].(2) Y=Bottom+Top−Bottom/1+10^^((LogIC50−X)×HillSlope)
In Formula (3), (D)j represents the concentration of component j in the mixture needed to achieve an effect of x, while (Dx)j denotes the concentration of component j required to produce the same effect when acting alone. Here, x refers to the inhibition rate produced by the composition, and n indicates the number of individual compounds in the composition.

[5] abbreviates: molar ratio 10:1, α-glucosidase 4 μM.
The mark [6] stands for this setting: molar ratio 40:1, α-glucosidase 4 μM.
The mark [7] stands for this setting: molar ratio compound:α-glucosidase 10:1, α-glucosidase 4 μM.
The mark [8] stands for this setting: calculated from the dose–response curve.

T2 sequence (P53341 whole entry): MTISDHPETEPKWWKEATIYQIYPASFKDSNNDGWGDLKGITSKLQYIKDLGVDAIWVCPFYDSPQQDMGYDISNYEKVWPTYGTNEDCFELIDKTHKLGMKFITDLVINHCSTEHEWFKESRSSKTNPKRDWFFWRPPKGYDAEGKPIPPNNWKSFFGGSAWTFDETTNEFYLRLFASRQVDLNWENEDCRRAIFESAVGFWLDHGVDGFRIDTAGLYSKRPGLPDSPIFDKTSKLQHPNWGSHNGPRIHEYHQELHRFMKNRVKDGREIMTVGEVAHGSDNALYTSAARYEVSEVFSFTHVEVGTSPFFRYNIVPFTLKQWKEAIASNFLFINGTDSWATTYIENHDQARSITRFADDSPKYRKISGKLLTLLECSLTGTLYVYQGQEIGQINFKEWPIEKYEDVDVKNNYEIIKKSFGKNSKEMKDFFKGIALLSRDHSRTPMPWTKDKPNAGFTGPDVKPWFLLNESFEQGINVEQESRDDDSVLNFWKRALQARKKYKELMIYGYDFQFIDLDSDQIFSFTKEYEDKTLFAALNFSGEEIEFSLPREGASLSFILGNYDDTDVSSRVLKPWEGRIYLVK
T1 sequence (P53341 whole entry): as above

What is called IC50 is the concentration at which inhibition is half-maximal. In the case of `C[C@@H]1O[C@@H](OC[C@H]2O[C@@H](Oc3c(-c4ccc(O)c(O)c4)oc4cc(O)cc(O)c4c3=O)[C@H](O)[C@@H](O)[C@@H]2O)[C@H](O)[C@H](O)[C@H]1O` [C6, rutin], in the experiment with normal C57BL/6J mice (2 mg/kg oral), the Blood glucose levels came to 14.68 ± 1.00 and the “Rate of blood glucose reduction” value is -1.38%. In the experiment on normal C57BL/6J mice (10 mg/kg oral), the Blood glucose levels amounted to 12.81 ± 1.23 and the “Rate of blood glucose reduction” value worked out at 11.49%. In addition, in the experiment on normal C57BL/6J mice (50 mg/kg oral), the Blood glucose levels turned out to be 11.83 ± 0.71 and the “Rate of blood glucose reduction” value turned out to be 18.31%. Moreover, on α-glucosidase [1] (setting [5]), the β-turn is 12.1%, the β-sheet worked out at 26.9% and the random coil turned out to be 45.5%. On α-glucosidase [1] (setting [6]), the β-turn is reported as 17.6%, the α-helix was 9.30%, the β-sheet came out at 14.3% and the random coil is 58.8%. For the same compound, the α-helix on α-glucosidase [1] (setting [7]) is 15.5%. In experiment [2], this compound registered an IC50 of 211 ± 11.2 µM.
`O=c1c(O[C@@H]2O[C@H](CO)[C@@H](O)[C@H](O)[C@H]2O)c(-c2ccc(O)c(O)c2)oc2cc(O)cc(O)c12` [C10, isoquercitrin]: the Blood glucose levels is 12.41 ± 2.07 in the experiment with normal C57BL/6J mice (10 mg/kg oral), 12.21 ± 2.08 with normal C57BL/6J mice (25 mg/kg oral) and 10.91 ± 1.78 in the experiment with normal C57BL/6J mice (50 mg/kg oral). The “Rate of blood glucose reduction” value came to 7.66% with normal C57BL/6J mice (10 mg/kg oral), 9.15% in the experiment with normal C57BL/6J mice (25 mg/kg oral) and 18.82% with normal C57BL/6J mice (50 mg/kg oral). In addition, the β-turn on α-glucosidase [1] (setting [5]) was determined as 14.2%; at α-glucosidase [1] (setting [6]), 13.1%. Also, the values for the β-sheet at α-glucosidase [1] (setting [5]) and on α-glucosidase [1] (setting [6]) were 24.0% and 16.6%, respectively. Besides, the random coil on α-glucosidase [1] (setting [5]) is given as 49.3%; at α-glucosidase [1] (setting [6]) it was 57.8%. The α-helix at α-glucosidase [1] (setting [6]) was 12.5%; on α-glucosidase [1] (setting [7]), 12.4%. Further, the “type of inhibition on α-glucosidase” value at α-glucosidase [3] is recorded as “competitive inhibitor”. This compound gave an IC50 in experiment [2] of 71.7 ± 7.62 µM. Also, on α-glucosidase [4] (setting [8]), the “IC15 (concentration corresponding to a 15% inhibition rate)” value was 40 µM. In addition, at α-glucosidase [4] (each compound alone at its IC15 concentration, Com1 = mixture of the four at IC15 (117 μM in total)), the “inhibition rate against α-glucosidase” value was 14.93 ± 4.73%.
In the case of `O=C1c2ccc(O)cc2OCC1c1ccc(O)cc1` (centres unmarked) [C28, dihydrodaidzein], in the experiment with normal C57BL/6J mice (2 mg/kg oral), the Blood glucose levels is listed as 14.84 ± 0.62 and the “Rate of blood glucose reduction” value is given as -1.80%. In the experiment on normal C57BL/6J mice (10 mg/kg oral), the Blood glucose levels was 12.74 ± 0.75 and the “Rate of blood glucose reduction” value is listed as 12.61%. In the experiment on normal C57BL/6J mice (50 mg/kg oral), the Blood glucose levels was 11.39 ± 1.48 and the “Rate of blood glucose reduction” value came to 21.87%. Also, at α-glucosidase [1] (setting [5]), the β-turn is listed as 14.4%, the β-sheet is recorded as 25.6% and the random coil is on record as 50.7%. Besides, at α-glucosidase [1] (setting [6]), the β-turn stood at 12.9%, the α-helix is given as 10.9%, the β-sheet was found to be 20.7% and the random coil was 55.5%. Further, at α-glucosidase [1] (setting [7]), the α-helix came to 9.30%. The “type of inhibition on α-glucosidase” value on α-glucosidase [3] is on record as “mixed-type inhibitors”. Also, the IC50 in experiment [2] was 412 ± 11.4 µM. Besides, the IC05 on α-glucosidase [4] (setting [8]) was 98.27 µM.

(Values after publication PMC12114633, “α-Glucosidase Inhibition Mechanism and Anti-Hyperglycemic Effects of Flavonoids from Astragali Radix and Their Mixture Effects” (Pharmaceuticals, 2025).)
